Measured values as given in patent US20250248998A1, “LRRK2 Inhibitors” (Brenig Therapeutics, Inc., priority 2022, published 2025).
pIC50, pKi: −log10 of the molar value.

Assays:
LRRK2 WT [1] = target: T1, LRRK2 WT (Homo sapiens, UniProt Q5S007); assay: Cell-based NanoBRET target engagement assay in HEK293 cells transfected with LRRK2 WT-NanoLuc fusion vector; design: expressed in transfected cells; host or cells: HEK293 (ATCC); settings: compound treatment 1 h
Description: (§1) Example C. Cell-Based NanoBRET Target Engagement Assay in 11EK293 Cells Transiently Transfected with LRRK2 WT- or LRRK2 (G2019S)-Nano Luc Fusion Vector
(§2) H1EK293 (ATCC) cells were transfected with […] LRRK2 WT or LRRK2 (G2019S) and 9 μg transfection carrier DNA. The transfected cells were treated with the compounds (starting at 1 μM, 10-dose with 3-fold dilution) and reference compounds CEP-701 or Staurosporine (starting at 1 μM, 10-dose with 3-fold dilution); compound treatment time: 1 h. LRRK2 WT and LRRK2 (G2019S) target engagement was measured by NanoBRET assay. Curve fits were performed only when % NanoBret signal at the highest concentration of compounds was less than […]. Assay format: 384-well format, 4000 cells/well. The IC50 values are shown in Table C, wherein “A” corresponds to IC50≤50.0 nM, “B” corresponds to 50.0 nM≤IC50<100.0 nM, “C” corresponds to 100.0 nM≤IC50.
Target sequence in this assay (Q5S007 whole entry, the tested form may be a part): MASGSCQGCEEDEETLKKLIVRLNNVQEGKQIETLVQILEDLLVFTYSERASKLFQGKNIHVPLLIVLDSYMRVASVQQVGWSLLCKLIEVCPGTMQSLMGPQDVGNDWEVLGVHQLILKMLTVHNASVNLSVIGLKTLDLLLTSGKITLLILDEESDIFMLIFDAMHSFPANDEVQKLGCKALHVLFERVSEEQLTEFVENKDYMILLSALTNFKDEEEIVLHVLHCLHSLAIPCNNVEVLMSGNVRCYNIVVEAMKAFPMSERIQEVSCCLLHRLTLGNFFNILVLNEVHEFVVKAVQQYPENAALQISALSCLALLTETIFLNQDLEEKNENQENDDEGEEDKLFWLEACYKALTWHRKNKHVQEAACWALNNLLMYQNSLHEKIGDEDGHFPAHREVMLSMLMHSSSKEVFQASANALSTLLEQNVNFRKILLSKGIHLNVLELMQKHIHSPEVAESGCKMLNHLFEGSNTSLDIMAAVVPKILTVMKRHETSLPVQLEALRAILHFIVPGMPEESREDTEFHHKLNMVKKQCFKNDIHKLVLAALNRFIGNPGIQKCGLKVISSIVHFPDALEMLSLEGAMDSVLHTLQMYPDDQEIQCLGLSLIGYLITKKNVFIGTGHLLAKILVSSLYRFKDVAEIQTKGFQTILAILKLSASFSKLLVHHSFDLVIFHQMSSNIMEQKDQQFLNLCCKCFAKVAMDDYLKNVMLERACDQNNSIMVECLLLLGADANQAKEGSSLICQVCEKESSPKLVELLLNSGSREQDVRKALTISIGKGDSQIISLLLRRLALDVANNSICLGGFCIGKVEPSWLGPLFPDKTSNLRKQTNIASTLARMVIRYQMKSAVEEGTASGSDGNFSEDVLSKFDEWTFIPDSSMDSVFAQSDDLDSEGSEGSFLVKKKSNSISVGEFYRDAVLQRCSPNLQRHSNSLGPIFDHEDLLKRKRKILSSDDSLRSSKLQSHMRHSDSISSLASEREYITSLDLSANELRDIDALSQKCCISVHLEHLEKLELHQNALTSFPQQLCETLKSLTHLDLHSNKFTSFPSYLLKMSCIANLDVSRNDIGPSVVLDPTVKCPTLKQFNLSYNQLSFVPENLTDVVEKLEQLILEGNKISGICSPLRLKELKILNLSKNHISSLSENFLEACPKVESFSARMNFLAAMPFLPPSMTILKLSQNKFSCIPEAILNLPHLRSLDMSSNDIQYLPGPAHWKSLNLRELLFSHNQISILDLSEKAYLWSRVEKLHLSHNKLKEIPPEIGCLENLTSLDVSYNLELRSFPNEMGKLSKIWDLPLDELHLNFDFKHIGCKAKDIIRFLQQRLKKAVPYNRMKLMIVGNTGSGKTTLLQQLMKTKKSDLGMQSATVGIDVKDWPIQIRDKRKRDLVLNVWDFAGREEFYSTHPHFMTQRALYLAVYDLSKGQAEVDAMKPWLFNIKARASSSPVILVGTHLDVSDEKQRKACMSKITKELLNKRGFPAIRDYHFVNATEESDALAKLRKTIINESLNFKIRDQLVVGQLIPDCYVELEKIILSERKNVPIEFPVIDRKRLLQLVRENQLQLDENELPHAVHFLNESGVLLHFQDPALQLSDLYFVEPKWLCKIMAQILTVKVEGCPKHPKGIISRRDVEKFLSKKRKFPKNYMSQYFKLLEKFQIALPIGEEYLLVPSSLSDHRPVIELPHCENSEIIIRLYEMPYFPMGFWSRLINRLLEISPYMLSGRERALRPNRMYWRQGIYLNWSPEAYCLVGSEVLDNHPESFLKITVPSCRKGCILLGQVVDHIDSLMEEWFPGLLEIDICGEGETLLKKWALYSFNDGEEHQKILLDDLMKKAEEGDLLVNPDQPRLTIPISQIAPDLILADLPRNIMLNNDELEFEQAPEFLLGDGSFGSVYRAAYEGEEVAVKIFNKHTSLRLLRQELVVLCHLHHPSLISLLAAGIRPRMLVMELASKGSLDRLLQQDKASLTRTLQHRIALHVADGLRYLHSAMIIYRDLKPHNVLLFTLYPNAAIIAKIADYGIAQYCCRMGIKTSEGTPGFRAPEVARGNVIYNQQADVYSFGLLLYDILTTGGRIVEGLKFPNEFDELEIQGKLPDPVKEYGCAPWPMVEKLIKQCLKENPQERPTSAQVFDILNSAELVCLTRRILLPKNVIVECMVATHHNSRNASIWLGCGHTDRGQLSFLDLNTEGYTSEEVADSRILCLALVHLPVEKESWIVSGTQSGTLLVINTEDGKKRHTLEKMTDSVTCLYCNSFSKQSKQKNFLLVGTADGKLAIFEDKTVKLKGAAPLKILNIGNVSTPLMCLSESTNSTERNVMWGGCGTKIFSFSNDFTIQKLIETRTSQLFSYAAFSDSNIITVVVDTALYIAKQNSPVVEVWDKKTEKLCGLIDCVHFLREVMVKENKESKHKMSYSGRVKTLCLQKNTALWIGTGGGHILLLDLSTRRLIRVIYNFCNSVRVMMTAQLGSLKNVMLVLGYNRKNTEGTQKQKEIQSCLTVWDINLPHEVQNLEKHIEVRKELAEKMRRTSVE

LRRK2 WT [2] = target: T1, LRRK2 WT; assay: Enzymatic activity inhibition against LRRK2 WT (ADP-Glo kinase assay, LRRKtide substrate); format: biochemical; design: purchased SignalChem Biotech, Inc. L10-11G-10; settings: recombinant LRRK2 WT 36 nM, ATP, 1 h at rt, average Ki
Description: Example B. Primary Assays Used to Determine Potency of the LRRK2 Inhibition
Assay for Determining Enzymatic Activity Inhibition Against LRRK2 WT.
Compound activity was determined using recombinant LRRK2 WT protein (SignalChem Biotech, Inc., Cat #L10-11G-10) and LRRKtide substrate (SignalChem Biotech, Inc., Cat #L10-58) in an in vitro enzymatic reaction. The enzymatic reaction was carried out in assay buffer (40 mM TRIS-HCl pH 7.4, 20 mM MgCl2, 0.05 mM DTT, 0.1 mg/mL BSA). The compounds were dispensed into a 384 well Diamond Well Plate (Axigen, Cat #P-384-120SQ-C-S) using the Biomek FX liquid handling system at 80× solutions of compounds in DMSO. The 2× Protein-Substrate mix (final concentration 36 nM of LRRK2 WT and 0.8 μg/μL of LRRKtide) was prepared in the 1× Assay buffer and 4 μL of mixture per well was added into the 384-well white Reaction plate with NBS (Corning, Cat #CLS4513). The 4 μL of LRRKtide substrate w/o LRRK2 WT in the 1× buffer was used for a negative control. Plates were centrifuged for 1 min at 200 g. Next the compounds were added to Reaction plate using Biomek station via following steps: 1 μL of 80× compounds (in DMSO) were mixed thoroughly with 39 μL of 2×10 μM ATP in Assay Buffer, then 4 μL of this mixture was added to Reaction plate with 4 μL of Protein-Substrate mix. Plates were centrifuged for 1 min at 200 g and incubated for 1 hour at rt. Then, 4 μL per well of ADP-Glo reagent (Promega, ADP-Glo™ Kinase Assay, Cat #V9102) was added. Plates were incubated for 30 minutes at rt. Then, 8 μL per well of Kinase detection reagent (Promega, ADP-Glo™ Kinase Assay, Cat #V9102) was added and the luminescence signal was measured with a microplate reader. The % inhibition was then used to calculate the Ki values. The average Ki values are shown in Table B, wherein “A” corresponds to Ki<10.0 nM, “B” corresponds to 10.0 nM K Ki<20.0 nM, “C” 20.0 nM K Ki<50.0 nM, “D” corresponds to 50.0 nM K Ki<100.0 nM and “E” corresponds to Ki>100.0 nM.
Target sequence in this assay (Q5S007 970-2527 limits assumed): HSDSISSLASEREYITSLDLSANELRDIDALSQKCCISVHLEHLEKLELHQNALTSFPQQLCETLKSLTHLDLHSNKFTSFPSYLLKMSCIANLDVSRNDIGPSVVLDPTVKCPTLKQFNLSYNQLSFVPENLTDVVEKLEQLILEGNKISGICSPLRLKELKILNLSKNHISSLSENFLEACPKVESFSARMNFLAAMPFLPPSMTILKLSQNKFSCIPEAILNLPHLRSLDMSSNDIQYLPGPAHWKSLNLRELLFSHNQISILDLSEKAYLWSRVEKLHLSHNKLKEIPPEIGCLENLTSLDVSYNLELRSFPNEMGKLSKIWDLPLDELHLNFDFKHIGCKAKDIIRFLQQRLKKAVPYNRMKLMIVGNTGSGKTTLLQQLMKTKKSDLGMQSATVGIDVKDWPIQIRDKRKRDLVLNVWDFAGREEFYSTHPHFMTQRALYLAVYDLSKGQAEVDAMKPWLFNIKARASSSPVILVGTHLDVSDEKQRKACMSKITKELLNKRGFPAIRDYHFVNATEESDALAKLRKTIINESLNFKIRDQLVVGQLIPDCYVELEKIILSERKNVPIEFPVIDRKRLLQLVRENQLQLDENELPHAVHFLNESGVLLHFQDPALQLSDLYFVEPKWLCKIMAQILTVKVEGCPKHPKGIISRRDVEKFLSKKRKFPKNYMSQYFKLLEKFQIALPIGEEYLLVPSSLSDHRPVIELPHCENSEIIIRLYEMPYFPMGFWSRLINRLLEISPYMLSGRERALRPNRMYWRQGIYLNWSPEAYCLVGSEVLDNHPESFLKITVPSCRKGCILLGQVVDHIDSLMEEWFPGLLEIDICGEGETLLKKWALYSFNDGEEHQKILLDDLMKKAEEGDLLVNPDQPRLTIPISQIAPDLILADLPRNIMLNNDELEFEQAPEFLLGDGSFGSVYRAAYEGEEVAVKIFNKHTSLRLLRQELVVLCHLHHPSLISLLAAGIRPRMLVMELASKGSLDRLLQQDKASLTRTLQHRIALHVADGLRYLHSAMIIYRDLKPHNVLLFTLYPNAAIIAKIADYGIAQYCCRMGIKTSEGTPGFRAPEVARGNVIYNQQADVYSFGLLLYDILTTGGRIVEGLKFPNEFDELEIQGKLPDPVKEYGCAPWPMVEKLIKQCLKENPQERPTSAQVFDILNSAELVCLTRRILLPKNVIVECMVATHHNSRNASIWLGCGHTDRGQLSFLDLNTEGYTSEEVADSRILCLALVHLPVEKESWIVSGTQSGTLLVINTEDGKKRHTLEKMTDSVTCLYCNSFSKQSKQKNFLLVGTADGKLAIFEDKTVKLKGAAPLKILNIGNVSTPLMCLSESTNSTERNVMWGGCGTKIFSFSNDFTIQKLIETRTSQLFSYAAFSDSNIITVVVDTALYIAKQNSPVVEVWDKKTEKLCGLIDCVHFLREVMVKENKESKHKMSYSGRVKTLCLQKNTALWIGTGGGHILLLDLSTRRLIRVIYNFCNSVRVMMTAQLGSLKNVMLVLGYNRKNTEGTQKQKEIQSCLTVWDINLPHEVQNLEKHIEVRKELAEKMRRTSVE

LRRK2[G2019S] [3] = target: T2, LRRK2[G2019S] (Homo sapiens, UniProt Q5S007, G2019S); assay: Cell-based NanoBRET target engagement assay in HEK293 cells transfected with LRRK2 (G2019S)-NanoLuc fusion vector; design: expressed in transfected cells; host or cells: HEK293 (ATCC); settings: compound treatment 1 h
Description: as §1, §2
Target sequence in this assay (Q5S007 whole entry G2019S, the tested form may be a part): as the sequence (Q5S007 whole entry, the tested form may be a part) above, with G2019S counted along it

[4] = A549 cytotoxicity assay (CellTiter-Glo); format: cell-based; settings: human, A549 cells, 3 days of incubation
Description: Example D. A549 Cytotoxicity Assay Used to Determine Safety of the LRRK2 Inhibitors
A549 (ATCC, CCL-185) cells were seeded at a density of 4000 cells per well in a 384-well clear bottom plate (Greiner Cat #781090) in 45 μL total volume of the complete cell culture medium DMEM (PanEco, Cat #C420, Russia) with 10% FBS (HyClone Cat #SV30160.03). The cells were allowed to adhere overnight at 37° C., 5% CO2. The 500× compounds solutions in DMSO (Sigma Cat #D2650) were prepared in the compounds plate (Diamond Well Plate, Axigen, Cat #P-384-120SQ-C-S) and DMSO as a vehicle control was included. The 1 μL aliquot of 500× compounds (Compounds plate) was added to the 49 μL culture medium in the Dilution plate (Diamond Well Plate, Axigen, Cat #P-384-120SQ-C-S), mixed and then the 5 μL aliquots of the 10× compounds solutions was transferred to cells followed by centrifugation at 100 g for 1 min. Final DMSO concentration was 0.2%. After 3 days of incubation the 10 μL per well of CellTiter-Glo (Promega, CAT #G7572) was added to the cells, plate was centrifuged at 100 g for 1 min. The luminescence signal was detected with CLARIOstar Plus (BMG LABTECH) microplate reader.

LRRK2[G2019S] [5] = target: T2, LRRK2[G2019S]; assay: Enzymatic activity inhibition against LRRK2[G2019S] (ADP-Glo kinase assay, LRRKtide substrate); format: biochemical; design: purchased SignalChem Biotech, Inc. L10-12GG-10; settings: recombinant LRRK2[G2019S] 36 nM, ATP, 1 h at rt, average Ki
Description: Example A. Primary Assays Used to Determine Potency of the LRRK2 Inhibition
Assay for Determining Enzymatic Activity Inhibition Against LRRK2[G2019S].
Compound activity was determined using recombinant LRRK2[G2019S] protein (SignalChem Biotech, Inc., Cat #L10-12GG-10) and LRRKtide substrate (SignalChem Biotech, Inc., Cat #L10-58) in an in vitro enzymatic reaction. The enzymatic reaction was carried out in assay buffer (40 mM TRIS-HCl pH 7.4, 20 mM MgCl2, 0.05 mM DTT, 0.1 mg/mL BSA). The compounds were dispensed into a 384 well Diamond Well Plate (Axigen, Cat #P-384-120SQ-C-S) using the Biomek FX liquid handling system at the 80× solutions of compounds in DMSO. The 2× Protein-Substrate mix (final concentration 36 nM of LRRK2[G2019S] and 0.8 μg/μL of LRRKtide) was prepared in 1× Assay buffer and 4 μL of mixture per well was added into the 384-well white Reaction plate with NBS (Corning, Cat #CLS4513). The 4 μL of LRRKtide substrate w/o LRRK2[G2019S] in the 1× buffer was used for a negative control. Plates were centrifuged for 1 min at 200 g. Next the compounds were added to the reaction plate using Biomek station via following steps: 1 μL of 80× compounds (in DMSO) were mixed thoroughly with 39 μL of 2×10 μM ATP in Assay Buffer, then 4 μL of this mixture was added to Reaction plate with 4 μL of Protein-Substrate mix. Plates were centrifuged for 1 min at 200 g and incubated for 1 h at rt. Then, 4 μL per well of ADP-Glo reagent (Promega, ADP-Glo™ Kinase Assay, Cat #V9102) was added. Plates were incubated for 30 min at rt. Then, 8 μL per well of Kinase detection reagent (Promega, ADP-Glo™ Kinase Assay, Cat #V9102) was added and the luminescence signal was measured with a microplate reader. The luminescence signal was detected with CLARIOstar Plus (BMG LABTECH) microplate reader. The % inhibition was then used to calculate the Ki values. The average Ki values are shown in Table A, wherein “A” corresponds to Ki<5.0 nM, “B” corresponds to 5.0 nM≤Ki<10.0 nM, “C” 10.0 nM≤Ki<50.0 nM, “D” corresponds to 50.0 nM≤Ki<100.0 nM and “E” corresponds to Ki>100.0 nM.
Target sequence in this assay (Q5S007 970-2527 G2019S limits assumed): as the sequence (Q5S007 970-2527 limits assumed) above, with G1050S counted along it

| pIC50 (LRRK2 WT [1]) | pKi (LRRK2 WT [2]) | pIC50 (LRRK2[G2019S] [3]) | pKi (LRRK2[G2019S] [5]) | Compound | CC50 at 3 days [4] [nM] |
| --- | --- | --- | --- | --- | --- |
| ≤ 7.00 | 7.70 to 8.00 | ≤ 7.00 | 8.00 to 8.30 | CC(C)Oc1ccc2[nH]nc(-c3cnnc(N4CCC(O)C4)c3)c2c1 (stereo in doubt) [Compound 2, (R)-1-(5-(5-isopropoxy-1H-indazol-3-yl)pyridazin-3-yl)pyrrolidin-3-ol] | > 10000 |
| ≤ 7.00 | ≥ 8.00 | ≤ 7.00 | ≥ 8.30 | CC1CCN(c2cc(-c3n[nH]c4ccc(OC(C)C)cc34)cnn2)C1 (stereo not drawn) [Compound 3, 5-isopropoxy-3-[6-(3-methylpyrrolidin-1-yl)pyridazin-4-yl]-1H-indazole] | > 10000 |
| ≤ 7.00 | ≥ 8.00 | ≤ 7.00 | ≥ 8.30 | CC(C)Oc1ccc2[nH]nc(-c3cc(N4CCOCC4)c(=O)n(C)n3)c2c1 [Compound 14, 6-(5-isopropoxy-1H-indazol-3-yl)-2-methyl-4-morpholino-pyridazin-3-one] | > 10000 |
| ≤ 7.00 | ≥ 8.00 | ≤ 7.00 | 8.00 to 8.30 | CC(C)Cn1nc(-c2n[nH]c3ccc(OC(C)C)cc23)cc(N2CCOCC2)c1=O [Compound 18, 2-isobutyl-6-(5-isopropoxy-1H-indazol-3-yl)-4-morpholino-pyridazin-3-one] | – |
| 7.00 to 7.30 | ≥ 8.00 | ≥ 7.30 | ≥ 8.30 | CC(C)Oc1ccc2[nH]nc(-c3cc(N4CCOCC4)c(=O)n(C4CC4)n3)c2c1 [Compound 19, 2-cyclopropyl-6-(5-isopropoxy-1H-indazol-3-yl)-4-morpholino-pyridazin-3-one] | – |
| ≤ 7.00 | ≥ 8.00 | 7.00 to 7.30 | 8.00 to 8.30 | CC(C)Oc1ccc2[nH]nc(-c3cc(N4CCOCC4)c(=O)n(C(C)C)n3)c2c1 [Compound 21, 6-(5-isopropoxy-1H-indazol-3-yl)-2-isopropyl-4-morpholino-pyridazin-3-one] | – |
| ≤ 7.00 | ≥ 8.00 | 7.00 to 7.30 | ≥ 8.30 | CCn1nc(-c2n[nH]c3ccc(OC(C)C)cc23)cc(N2CCOCC2)c1=O [Compound 23, 2-ethyl-6-(5-isopropoxy-1H-indazol-3-yl)-4-morpholino-pyridazin-3-one] | – |
| ≤ 7.00 | ≥ 8.00 | ≤ 7.00 | 7.30 to 8.00 | Cc1cc2[nH]nc(-c3cc(N4CCOCC4)c(=O)n(C)n3)c2cc1OC(C)C [Compound 26, 6-(5-isopropoxy-6-methyl-1H-indazol-3-yl)-2-methyl-4-morpholino-pyridazin-3-one] | – |
| ≥ 7.30 | ≥ 8.00 | ≥ 7.30 | ≥ 8.30 | Cn1nc(-c2n[nH]c3ccc(OC4(C)CC4)cc23)cc(N2CCOCC2)c1=O [Compound 27, 2-methyl-6-[5-(1-methylcyclopropoxy)-1H-indazol-3-yl]-4-morpholino-pyridazin-3-one] | > 27000 |
| ≤ 7.00 | ≥ 8.00 | ≤ 7.00 | ≥ 8.30 | Cn1nc(-c2n[nH]c3ccc(OC4CC4)cc23)cc(N2CCOCC2)c1=O [Compound 30, 6-[5-(cyclopropoxy)-1H-indazol-3-yl]-2-methyl-4-morpholino-pyridazin-3-one] | – |
| ≥ 7.30 | ≥ 8.00 | ≥ 7.30 | ≥ 8.30 | CC(C)Oc1ccc2[nH]nc(-c3cc(N4CCCC4)c(=O)n(C)n3)c2c1 [Compound 44, 6-(5-isopropoxy-1H-indazol-3-yl)-2-methyl-4-pyrrolidin-1-yl-pyridazin-3-one] | > 10000 |
| ≥ 7.30 | ≥ 8.00 | ≥ 7.30 | ≥ 8.30 | C[C@@H]1CN(c2cc(-c3n[nH]c4ccc(OC5(C)CC5)cc34)nn(C3CC3)c2=O)C[C@H](C)O1 [Compound 51, 2-cyclopropyl-4-[(2S,6R)-2,6-dimethylmorpholin-4-yl]-6-[5-(1-methylcyclopropoxy)-1H-indazol-3-yl]pyridazin-3-one] | – |

| Compound | pIC50 (LRRK2 WT [1]) | pKi (LRRK2 WT [2]) | pIC50 (LRRK2[G2019S] [3]) | pKi (LRRK2[G2019S] [5]) | CC50 at 3 days [4] [nM] |
| --- | --- | --- | --- | --- | --- |
| Cn1nc(-c2n[nH]c3ccc(OC4CCC4)cc23)cc(N2CCOCC2)c1=O [Compound 28, 6-[5-(cyclobutoxy)-1H-indazol-3-yl]-2-methyl-4-morpholino-pyridazin-3-one] | ≤ 7.00 | ≥ 8.00 | ≤ 7.00 | ≥ 8.30 | – |
